Assay results as given in the supplement of paper PMC13380429.

Assays:
Settings in all cases: 72 h
Caco-2 [1] = assay: cell viability relative to DMSO; higher = less toxic
Calu-3 [2] = assay: as above
HepG2 [3] = assay: as above
U2OS [4] = assay: as above
Vero E6 [5] = assay: as above
Caco-2 [6] = assay: relative viability EC50 (midpoint between 100% and the lowest measured viability); higher = less toxic
Calu-3 [7] = assay: as above
HepG2 [8] = assay: as above
U2OS [9] = assay: as above
Vero E6 [10] = assay: as above
Caco-2 [11] = assay: drug sensitivity score (DSS) for viability; higher = more toxic; extreme values may be limits of the assay
Calu-3 [12] = assay: as above
HepG2 [13] = assay: as above
U2OS [14] = assay: as above
Vero E6 [15] = assay: as above

Compound | cell viability (Caco-2 [1]; 1 nM) [%] | cell viability (Caco-2 [1]; 10 nM) [%] | cell viability (Caco-2 [1]; 100 nM) [%] | cell viability (Caco-2 [1]; 1000 nM) [%] | cell viability (Caco-2 [1]; 10000 nM) [%] | cell viability (Calu-3 [2]; 1 nM) [%] | cell viability (Calu-3 [2]; 10 nM) [%] | cell viability (Calu-3 [2]; 100 nM) [%] | cell viability (Calu-3 [2]; 1000 nM) [%] | cell viability (Calu-3 [2]; 10000 nM) [%] | cell viability (HepG2 [3]; 1 nM) [%] | cell viability (HepG2 [3]; 10 nM) [%] | cell viability (HepG2 [3]; 100 nM) [%] | cell viability (HepG2 [3]; 1000 nM) [%] | cell viability (HepG2 [3]; 10000 nM) [%] | cell viability (U2OS [4]; 1 nM) [%] | cell viability (U2OS [4]; 10 nM) [%] | cell viability (U2OS [4]; 100 nM) [%] | cell viability (U2OS [4]; 1000 nM) [%] | cell viability (U2OS [4]; 10000 nM) [%] | cell viability (Vero E6 [5]; 1 nM) [%] | cell viability (Vero E6 [5]; 10 nM) [%] | cell viability (Vero E6 [5]; 100 nM) [%] | cell viability (Vero E6 [5]; 1000 nM) [%] | cell viability (Vero E6 [5]; 10000 nM) [%] | relative viability EC50 (Caco-2 [6]) [nM] | relative viability EC50 (Calu-3 [7]) [nM] | relative viability EC50 (HepG2 [8]) [nM] | relative viability EC50 (U2OS [9]) [nM] | relative viability EC50 (Vero E6 [10]) [nM] | drug sensitivity score (Caco-2 [11]) | drug sensitivity score (Calu-3 [12]) | drug sensitivity score (HepG2 [13]) | drug sensitivity score (U2OS [14]) | drug sensitivity score (Vero E6 [15])
CNC(=O)O[C@H]1COc2ccc(N3CCN(C4COC4)CC3)cc2[C@@H]1NC(=O)c1ccc(F)cc1 | 90.5 | 103 | 89.9 | 101 | 98.5 | 106 | 88.4 | 92.1 | 95.4 | 101 | 94.9 | 101 | 94.4 | 105 | 91.8 | 96.6 | 101 | 95.7 | 104 | 102 | 101 | 98.2 | 106 | 104 | 94.1 | > 10000 | > 10000 | > 10000 | > 10000 | > 10000 | 0 | 0 | 0 | 0 | 0
Cc1cc(N2CCOCC2)cc2[nH]c(-c3c(NC[C@@H](O)c4cccc(Cl)c4)cc[nH]c3=O)nc12 | 102 | 93.9 | 99.4 | 76.8 | 43 | 89.8 | 102 | 96.7 | 81.9 | 38.3 | 101 | 101 | 80.2 | 58.8 | 31.2 | 97.2 | 97.2 | 95.9 | 78 | 22.5 | 89.3 | 101 | 90.6 | 90.2 | 49.9 | 1160 | 1440 | 450 | 1450 | 1750 | 6.2 | 6 | 10.1 | 7.6 | 4.3
Cc1ccc(S(=O)(=O)c2ccc([N+](=O)[O-])o2)cc1 | 97.1 | 96.6 | 105 | 87.6 | 0 | 98 | 89.7 | 101 | 89.9 | 0 | 84.3 | 100 | 102 | 86.7 | 0 | 97.5 | 95.1 | 109 | 72.4 | 0 | 94.6 | 99.1 | 97.9 | 98.5 | -0.1 | 2160 | 2330 | 2090 | 1470 | 3060 | 7.6 | 7.2 | 7.8 | 9.6 | 5.8
Cc1cccc(NC(=O)c2ccc(C(F)(F)F)cc2C(=O)O)n1 | 99.5 | 101 | 101 | 98 | 105 | 103 | 95 | 94.5 | 106 | 98.6 | 103 | 96.8 | 105 | 108 | 102 | 100 | 102 | 97 | 97 | 104 | 99.7 | 99.8 | 105 | 104 | 106 | > 10000 | > 10000 | > 10000 | > 10000 | > 10000 | 0 | 0 | 0 | 0 | 0
Cn1ncc2c(N3CCOCC3)nc(-c3cccc(O)c3)nc21 | 99.9 | 108 | 94.5 | 61.5 | 25.2 | 86.3 | 102 | 83.7 | 79.1 | 24.5 | 100 | 101 | 111 | 95.6 | 19.8 | 98.8 | 99.6 | 99.3 | 90.6 | 28.9 | 100 | 102 | 98.9 | 78 | 30.9 | 938 | 1640 | 2740 | 2100 | 1350 | 8.7 | 6.7 | 5.1 | 5.5 | 7
